Series [1] has as its system E. amylovora S435. Nature of the series: Management of fire blight on shoots of potted McIntosh apple trees. Type of series: in vivo, Erwinia amylovora. Particulars: treated 2 h after inoculation, formulations diluted to 20%, streptomycin 100 ppm, 10 d. On the procedure:
A trial was conducted at the IRDA research station in Saint-Bruno-de-Montarville, Québec to evaluate the efficacies of the best isolates previously screened. To simulate fire blight, Malus x domestica ‘McIntosh’ cultivar trees were inoculated then treated 2 h later with 20% (w/w) isolate dilutions. Inoculum was obtained by suspending a 5-d culture of the virulent strain E. amylovora […] in potassium phosphate buffer (pH=6.5) in King B agar which favors the growth of this phytopathogen. The bacterial density was adjusted to ˜1×10^9 CFU/mL. Actively growing potted trees (cv. McIntosh grafted onto M26) were inoculated by transversely bisecting the two youngest leaves with scissors dipped in the inoculum. One or two shoots were inoculated per tree. Two hours after inoculation, candidate biological control agent suspensions were sprayed to runoff onto five trees per treatment using a low-pressure sprayer. The experimental design was completely randomized.
Inoculated controls were sprayed either with water or with the medium used to formulate the candidate biocontrol products. Uninoculated controls were sprayed only with water. […] Severity scores were analyzed with a cumulative link mixed model (clmm) in the “ordinal” package of R. Treatment and observation date were used as fixed effects. […]

Series [2] deals with Erwinia amylovora strain S01. Nature of the series: Field trial to control fire blight on Rome apple trees, Geneva NY. It counts as in vivo. On the procedure:
A field trial was conducted to determine the performance of the formulated product based on the vegetative cells of Pseudomonas poae FL10F and its extracellular metabolites produced in the supernatants and was compared to antibiotic (FireWall 17 WP Streptomycin), copper fungicide (Cueva, Certis, USA) and the biological product Blossom Protect based on two strains of Aureobasidium pullulans. […] Both antibiotic and copper that were used in this trial were EPA registered products. Pseudomonas poae FL10F was cultivated for 2 days at 30° C. and 200 rpm and reached an OD600 nm=2.50, which was empirically determined to represent 2.50×10^9 CFU/mL by plating serial dilutions of the suspension and counting colonies. A 4L of product based on Pseudomonas poae FL10F and its metabolites was produced as described above and was sprayed more than 2 months later on apple Rome trees. Three samples of this formulated product were retained in sterile 50 mL polypropylene centrifuge tubes at room temperature for long-term activity and bacterial count studies.
The 4L product was used during in a field trial conducted in Phelps, (Geneva) NY to evaluate the product against fire blight. Apple Rome were used for this study that had 5 to 12 blossom clusters per tree. These were 1-year-old trees from Waffler Nursery, Wolcott, N.Y.
The experimental treatments were applied using a CO2 Backpack sprayer that was calibrated to deliver 100 gallons per acre (Trees were sprayed to first drip with a “dilute” solution of products.) The sprayer was calibrated at 42 PSI and used 2 Hollow Cone (TXVK18) Nozzles.
An evaluation of treatments was conducted using the method where scissors were dipped into a solution of a streptomycin sensitive Erwinia amylovora strain S01, and the two smallest leaves on each terminal or shoot were cut in half. This severe test is used to simulate infection that can occur following hailstorms. The scissors were dipped into the Erwinia amylovora S01 solution prior to each cut. The apical terminal shoot and the terminal leaves on any side shoots were cut. For the size of these trees, the number of terminals that were cut varied from 9 to 18. To evaluate the treatments for this method, each treatment was applied as before to all leaves and shoots of seven individual trees. The inoculations occurred near dusk, and 1.15 inches of rain occurred during the overnight period. All treatments were applied 30 minutes before the infection and then re-applied 24 hours after the initial inoculation. The second application of treatments was applied to the same trees. The product based on Fluorescent Pseudomonas poae FL10F and its metabolites was first diluted at a concentration of 20% (w/w) with water then it was mixed properly and sprayed.
At 3 weeks following the scissor inoculation, each terminal shoot was rated for the length in inches with typical symptoms of fire blight (rated as SEVERITY). Then the percentage of all shoots that had any symptoms of fire blight was calculated as INCIDENCE).
The objective of this trial was to compare the activity of P. poae FL with antibiotic (Streptomycin), copper fungicide (Cueva, Certis, USA) and the biological product Blossom Protect based on two strains of Aureobasidium pullulans (Porter et al., 1960). Apple trees were infected with […] CFU/mL solution of Erwinia amylovora. The concentration of various treatments applied are represented in Table 13. The medium used in Treatment 7 is the same one used to cultivate the P. poae FL composed of Nutrient Broth NB (Difco) supplemented with 0.5% (w/w) glycerol and a concentration of 4% NaCl (w/w). Neither the medium nor the treatments used were phytotoxic to apple leaves and no phytotoxicity was noted on the apple trees in this study.

The test system of series [3] is E. amylovora S435. Put plainly: Agar disc diffusion assay of cell-free supernatants and fractions. Type of series: cell-based, Erwinia amylovora. Conditions: active fraction from bioassay-guided fractionation. The procedure:
To obtain cell-free supernatants, cultures of both strains were centrifuged at 25 000 rpm for 1 hour. The pellets were discarded and the supernatants were filtered using Stericup™ vacuum filtration system (0.2 μm). Fresh cell-free supernatants were used for the present research, but they could also be stored at +4° C. for one week, or at −20° C. for 6 months, while keeping their activity.
1 L of each bacterial culture was combined, and biomass was removed by centrifugation at 17 700×g for 20 min. The cell-free medium supernatant was applied to 40 g of pre-equilibrated Amberlite™ XAD-16 resin packed in a column. The XAD-16 column was subsequently washed with 1 L of H2O, and then eluted with 1 L of 100% methanol. The methanolic elution was evaporated to dryness by rotary evaporation, and the brown residue was redissolved in 5 ml of purified water (Milli-Q system; Millipore, Bedford, Mass.). The concentrated solution was then applied onto a 12 gram Biotage® SNAP Ultra C18 column to be fractionate using reverse-phase flash chromatography on a Biotage (Stockholm, Sweden) Isorela One instrument. This chromatography was performed using a linear gradient acetonitrile from 5% to 100% over 50 min at 15 ml min^−1. […] The bioactivity of these fractions was further determined by performing agar disc diffusion assay. […]
Background: In agar diffusion tests the substance spreads into inoculated agar from a disc or well.

The mark [4] stands for this setting: 3 weeks, Strepmycin 2.4 oz wt/a.

Consider `[H]/N=C(/N)N[C@H]1[C@H](O)[C@@H](O)[C@H](O[C@@H]2O[C@@H](C)[C@](O)(C=O)[C@H]2O[C@@H]2O[C@@H](CO)[C@H](O)[C@@H](O)[C@@H]2NC)[C@@H](N/C(N)=N\[H])[C@@H]1O` [Streptomycin], for which the “Median score (disease severity 0-4)” value in the series on E. amylovora S435 [1] turned out to be 0. Also, the “Fire blight Severity: Average length of shoot with symptoms of Fire blight” value in series [2] (3 weeks after scissor inoculation, Strepmycin 8 oz wt/a, Cueva 64 fl oz/a, P. poae FL10F 20 % v/v, Blossom Protect 20 oz wt/a) is 3.89 INCHES; in series [2] (setting [4]) it was 5.53 INCHES. Also, the “Fire blight Incidence: Average percentage of shoots with symptons of Fire blight following inoculation” value was found to be 81.73% in series [2] (setting [4]) and 52.39% in series [2] (3 weeks, Strepmycin 8 oz wt/a, Cueva 64 fl oz/a, P. poae FL10F 20 % v/v, Blossom Protect 20 oz wt/a). Further, the “Phytotoxicity: Percentage of leaves with atypical symptoms” value in series [2] (Strepmycin 2.4 oz wt/a) came to 0.00%; in series [2] (Strepmycin 8 oz wt/a, Cueva 64 fl oz/a, P. poae FL10F 20 % v/v, Blossom Protect 20 oz wt/a), 0.00%.

As to white line-inducing principle [WLIP], the “inhibition halos of the extracellular metabolite fraction on a lawn of E. amylovora S435” value in the series on E. amylovora S435 [3] is given as “comparable in diameter to that of the live strain itself or crude extracellular metabolites therefrom”.

oxydifficidin: the “inhibition halos of the extracellular metabolite fraction on a lawn of E. amylovora S435” value in the series on E. amylovora S435 [3] is “comparable in diameter to that of the live strain itself or crude extracellular metabolites therefrom”.

The record behind these values is patent US11337426B2, “Biological control agents against fire blight” (priority 2018, dated 2022).
